Entries after “also recorded” stand apart in the source; their conditions may differ.
Key:
[1] = tested on: human pluripotent stem cells; test: Small molecule cocktails in single cell culture of human pluripotent stem cells on feeder free substratum; format: cell-based; settings: in combination with MEKi/TFGβi/GSKi
Protocol: FIGS. 1A-1E. The effects of various small molecule cocktails on single cell culture of human pluripotent stem cells on feeder free substratum. FIG. 1A. Different morphologies were evident when single cell dissociated human pluripotent stem cells were treated with various combinations of small molecules in a feeder free environment. Medium containing a combination of ROCKi/MEKi/TGFβi/GSKi delivered robust growth and viability of human pluripotent stem cells. FIG. 1B. While some small molecules supported maintenance of pluripotent stem cells, i.e., MEKi/TGFβi/GSKi, and others facilitated single cell dissociation of pluripotent stem cells, i.e., Rocki, the unique combination of these small molecules, i.e., ROCKi/MEKi/TGFβi/GSKi, supported single cell dissociation while maintaining undifferentiated status as indicated by highly proliferative colonies that were positive for pluripotent marker Tra181. Tra181, red; DAPI, blue. FIG. 1C. The combination of MEKi/TFGβi/GSKi/ROCKi supported viability and proliferation when hiPSCs were seeded at 1×10^5 cells on Matrigel and scored 4 days later for number of viable cells and percent viability as measured by trypan blue. FIG. 1D. […] FIG. 1E. […]

[2] = tested on: human fibroblasts; test: Reprogramming of fibroblasts to iPSCs: kinetics and efficiency of colony formation; format: cell-based; settings: additive used in the culture system for 3 days
Protocol: To initiate the reprogramming process, ectopic expression of reprogramming factors (in variable combinations of human Oct4, Sox2, Klf4, c-Myc, Lin28, and Nanog) was achieved using lentiviral transduction or other methods such as protein only treatment. In most cases, the starting cells were plated at 10% confluency (i.e., 1×10^5 cells per well of a 6-well plate) on a gelatin (Mediatech) coated surface. For the method of viral infection, freshly collected lentivirus was added to the starting cells at a dilution of 1:2, supplemented with 4 μg/mL polybrene (Millipore), and spin-infected at 650 g at 32° C. for 1.5 hrs. The culture was transferred to 37° C. and 5% CO2 for an additional 7 hrs. After the completion of the incubation, the cells were washed three times with PBS and fed with fresh medium. With difficult to infect cells, such as IMR90 fibroblasts in feeder-free culture systems, this process was repeated one more time, 48 hrs post the initial infection. For non-genetic methods of inducing reprogramming such as the use of direct protein application to the cells, protein mixtures, or cocktails, consisting of reprogramming factors at 8 μg/mL were added to cell solution and maintained for 24 hrs prior to medium change. This step was repeated for an additional two to four times. […]

Compound	maintenance of cells in an undifferentiated state (SSEA4 and Tra181 surface expression) ([1]; compared with Y27632)	colony morphology ([1]; relative to Y27632)	post-sort seeding [2]
O=C(NCc1ccccc1)c1csc(Nc2ccncn2)n1 [Thiazovivin]	preferred over Y27632; also recorded: better supports the maintenance of cells in an undifferentiated state	more compact in morphology	
fibronectin			improved post-sort seeding

From patent US12415989B2, “Cell culture platform for single cell sorting and enhanced reprogramming of iPSCs” (Fate Therapeutics, Inc., priority 2010, dated 2025)
